# Reference: PMC11650737, “Developing MYC Degraders Bearing the Von Hippel–Lindau Ligand to Target the “Undruggable” MYC” (ACS Pharmacology & Translational Science, 2024)
# pIC50: −log10 of the molar value. “And” between values parts separate entries of the source, which are not always exact repeats. Equal values may be shown once.
# Experiments:
# [1] = tested on: PC3 cells; test: Cell uptake / intracellular concentration by LC-MS/MS, PC3; type: in vitro ADME, human; conditions: PC3, 24 h incubation with 10 μM
# Description: Therefore, in order to better comprehend the observed activities of our degraders, following incubation of each compound with cells, the intracellular concentrations of the synthesized derivatives were evaluated in different cancer cell lines, as described previously.[28],[29] SKBR3, PC3, or A549 cells were incubated with PROTACs (at a 10 μΜ concentration) for selected time points, respectively. Upon sample treatment, compounds were extracted and analyzed by LC-MS/MS. Table 1 presents the percentage of the molecule that enters the cells after 24 h incubation at the 10 μM concentration. […] The small molecule MYCi361, used as a binding domain component of MYC, was also evaluated in the cell uptake assay (Table 1).
# Cells were plated in 24-well plates at a density of 2 × 10^5 cells/well. 24 h after seeding, cells were incubated with each PROTAC (10 μΜ) for certain time points (1 h, 4 h, 8 h, and 24 h). The incubations were terminated at the selected time points by removing the medium and washing the cells twice with 1 mL cold PBS (1×) in each well in order to remove unbound PROTAC. Subsequently, the cells were lysed by adding a cold solution of ACN:H2O (3:2) and scraping off the cell monolayer. This process was done in two steps: first, 200 μL of ACN:H2O was added, the cells were scraped, and the cell lysate was collected. The second step involved the addition of an extra 100 μL of ACN:H2O, scraping, and collection of the remaining lysate. Samples were subsequently vortexed, sonicated, and centrifuged for 10 min at 13 000 rpm. The supernatants were collected, evaporated for 1 h at 55 °C, and stored at −20 °C until the day of analysis. Samples were then reconstituted in 200 μL of initial mobile phase (100% A), and the intracellular accumulation of PROTACs was determined by LC-MS/MS analysis using Warfarin as a stable internal standard and PROTAC standards for the construction of analytical standard curves.
# The percentage of cell uptake was calculated as follows: [drawing 1]
# [2] = tested on: various cancer cell lines; test: Cell viability (MTT) assay, cell line not singled out; type: cell-based; conditions: Homo sapiens, 72 h, summary over cancer cell lines (breast and prostate), read-out: IC50 (antiproliferative activity)
# Description: The antiproliferative activity of the synthesized compounds was tested in cell viability assays optimally set up for various cancer cell lines (results are depicted in Table 2, n = 3, average IC50 (μM) ± SD).
# Cells were plated at a density of 5 × 10^3 cells per well on 96-well plates. After 24 h of incubation (37 °C, 5% CO2), the cell medium was removed, and compounds were added at selected concentrations (0.1–100 μM), followed by incubation for 72 h. Control cells were treated with 0.4% DMSO medium to match the conditions in the wells where drugs were added. After 72 h, the medium was removed, and the 3-(4,5-dimethylthiazol-2-yl)-2,5-diphenyltetrazolium bromide (MTT) solution (0.3 mg/mL in PBS) was added to cells for 3 h under no light conditions. The MTT solution was removed, and the formazan crystals were dissolved in 100 μL of DMSO. The optical density was measured at 570 nm with a reference wavelength of 690 nm using an absorbance microplate reader (SpectraMax 190, Molecular Devices, Sunnyvale, CA, USA). The half-maximal inhibitory concentration (IC50) was calculated based on a four-parameter logistic equation, generating a cell viability curve, using GraphPad Prism 6.01 (GraphPad Software, Inc.). […] The resulting absorbance values were used instead of IC50 calculation. […]
# [3] = biological target: T1, c-MYC (Homo sapiens, UniProt P01106); test: MYC degradation in PC3 cells, Western blot; type: cell-based
# T1 construct: endogenous in cells; host or cells: PC3
# Description: The ability of novel compounds to induce MYC degradation in the PC3 cell line was evaluated via a Western blot-based assay. […] A PROTAC that effectively degrades bromodomain and extra-terminal (BET) family proteins, with indirect action on MYC levels, BETd-260, was also included in these experiments as a positive control. BETd-260 was tested at a lower concentration (1 μΜ) due to its high potency.[26]
# PC3 cells were used for the determination of MYC levels after treatment with the PROTACs under study. Cells (at a density of 250 000 per well) were seeded in 6-well plates for 24 h until 60% confluence. During the 24-h incubation period, cells were treated with the tested compounds (10 μΜ) and BETd-260 (1 μΜ) that was used as a positive control. For rescue experiments, cells were pretreated with the inhibitor MG-132 for 2 h, and then, the medium was removed, followed by the addition of the selected compound. After the 24-h incubation period, a cell lysis protocol was performed. The medium was removed, and the cells were rinsed with cold PBS. Lysis was induced using RIPA lysis buffer (50 mM Tris-HCl at pH 7.5, 150 mM NaCl, 5 mM Na2EDTA, 1 mM EGTA, 0.1% SDS, 1% NP-40, 0.5% sodium deoxycholate, 8 mM sodium fluoride, and 1 mM sodium orthovanadate) and protease inhibitor cocktail (Roche, UK). Total protein concentration in lysate samples was determined via performance of the Bradford assay in bovine serum albumin (BSA). Standard and unknown samples were preformulated in Coomassie blue G-250 assay reagent (Thermo Fisher Scientific, MA, USA), followed by a readout at 595 nm. Separation of the protein isolated from PC3 lysates, respectively (10 μg), with NuPAGE sample reducing agent and NuPAGE LDS sample buffer (Invitrogen, UK), was achieved via SDS-PAGE electrophoresis at 110 V for 2 h, prior to overnight transfer to the polyvinylidene difluoride (PVDF) membrane. The membranes were then blocked in 5% nonfat dry milk in Tris-buffered saline with 0.1% Tween-20 (TBST-T) for 1 h at room temperature.
# Detection of MYC in PC3 cells was accomplished via immunoblot of the POI with the indicated monoclonal antibody (Cell Signaling Technology, MA, USA, catalog number #5605) at 1:1000 in TBST at […] overnight. The secondary anti-rabbit peroxidase-conjugate antibody (Cell Signaling Technology, MA, USA, catalog number #7074) was further added at 1:2000 dilution, followed by 1-h incubation at room temperature. Chemiluminescent visualization of the MYC protein bands was performed after the addition of Immobilon Crescendo Western HRP substrate (Sigma-Aldrich, Munich, Germany). For normalization of MYC concentration, GAPDH was labeled using the specific rabbit monoclonal antibody (Cell Signaling Technology, MA, USA, catalog number #5174) at 1:20000 in 5% nonfat dry milk. Protein bands were quantified with the ImageJ software.
# T1 sequence (P01106 whole entry): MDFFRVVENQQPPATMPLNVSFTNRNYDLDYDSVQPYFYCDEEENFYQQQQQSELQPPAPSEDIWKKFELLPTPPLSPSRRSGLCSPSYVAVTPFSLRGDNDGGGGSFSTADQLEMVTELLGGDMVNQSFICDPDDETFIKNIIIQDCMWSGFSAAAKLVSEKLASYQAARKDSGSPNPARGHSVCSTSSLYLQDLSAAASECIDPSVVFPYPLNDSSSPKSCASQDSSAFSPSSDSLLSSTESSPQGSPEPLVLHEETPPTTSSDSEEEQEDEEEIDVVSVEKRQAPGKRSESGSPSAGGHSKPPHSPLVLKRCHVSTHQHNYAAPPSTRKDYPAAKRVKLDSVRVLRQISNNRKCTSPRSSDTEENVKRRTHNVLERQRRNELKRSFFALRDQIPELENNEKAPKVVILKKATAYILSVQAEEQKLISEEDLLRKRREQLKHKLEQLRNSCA
SMILES,Uptake by cells [1],pIC50 [2],"dose dependence of MYC degradation ([3]; 1–20 μΜ, 24 h)","c-MYC degradation after short treatment ([3]; 10 μΜ, 3 h)","MYC degradation (MYC levels by Western blot) ([3]; 10 μΜ, 24 h)","MYC levels after pretreatment with proteasome inhibitor MG-132 ([3]; MG-132 10 μΜ 2 h, then compound 10 μΜ 24 h, versus control group)"
Cc1ncsc1-c1ccc(CNC(=O)[C@@H]2C[C@@H](O)CN2C(=O)[C@@H](NC(=O)CCC(=O)NCCCOc2ccc(-c3cc(C(F)(F)F)nn3C)c(O)c2-c2cc(C(F)(F)F)cc(C(F)(F)F)c2)C(C)(C)C)cc1 [CSI86],19% and 19 ± 4%,4.74 to 4.89,–,–,–,–
Cc1ncsc1-c1ccc(CNC(=O)[C@@H]2C[C@@H](O)CN2C(=O)[C@@H](NC(=O)CCCC(=O)NCCCOc2ccc(-c3cc(C(F)(F)F)nn3C)c(O)c2-c2cc(C(F)(F)F)cc(C(F)(F)F)c2)C(C)(C)C)cc1 [CSI107],13% and 13 ± 3%,4.74 to 4.89,dose-dependent manner,effectively mediated c-MYC degradation,significantly active,no reduction in MYC levels
Cc1ncsc1-c1ccc(CNC(=O)[C@@H]2C[C@@H](O)CN2C(=O)[C@@H](NC(=O)COCCOCC(=O)NCCCOc2ccc(-c3cc(C(F)(F)F)nn3C)c(O)c2-c2cc(C(F)(F)F)cc(C(F)(F)F)c2)C(C)(C)C)cc1 [CSI135],–,–,–,–,No particular effect,–
